Data from patent publication US20230348376A1 (TEIJIN PHARMA LIMITED, priority 2020, published 2023).
Where two headings read alike, the source gives them in different places.

Molecular target: T1, human VDR (Homo sapiens, UniProt P11473)
T1 sequence (P11473 1-427): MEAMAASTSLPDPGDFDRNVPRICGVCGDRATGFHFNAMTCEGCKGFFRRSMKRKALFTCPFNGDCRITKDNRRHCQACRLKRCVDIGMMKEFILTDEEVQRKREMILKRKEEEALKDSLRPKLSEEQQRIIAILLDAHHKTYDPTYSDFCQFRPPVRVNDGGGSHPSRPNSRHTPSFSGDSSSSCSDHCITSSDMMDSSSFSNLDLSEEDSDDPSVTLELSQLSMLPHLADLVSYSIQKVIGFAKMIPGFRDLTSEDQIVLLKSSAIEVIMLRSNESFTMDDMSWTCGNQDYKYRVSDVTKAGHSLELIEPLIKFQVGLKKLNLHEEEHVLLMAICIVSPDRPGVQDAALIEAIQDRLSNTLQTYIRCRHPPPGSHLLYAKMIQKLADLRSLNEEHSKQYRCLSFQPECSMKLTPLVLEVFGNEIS
T1 sequence (P19793 1-462 partner): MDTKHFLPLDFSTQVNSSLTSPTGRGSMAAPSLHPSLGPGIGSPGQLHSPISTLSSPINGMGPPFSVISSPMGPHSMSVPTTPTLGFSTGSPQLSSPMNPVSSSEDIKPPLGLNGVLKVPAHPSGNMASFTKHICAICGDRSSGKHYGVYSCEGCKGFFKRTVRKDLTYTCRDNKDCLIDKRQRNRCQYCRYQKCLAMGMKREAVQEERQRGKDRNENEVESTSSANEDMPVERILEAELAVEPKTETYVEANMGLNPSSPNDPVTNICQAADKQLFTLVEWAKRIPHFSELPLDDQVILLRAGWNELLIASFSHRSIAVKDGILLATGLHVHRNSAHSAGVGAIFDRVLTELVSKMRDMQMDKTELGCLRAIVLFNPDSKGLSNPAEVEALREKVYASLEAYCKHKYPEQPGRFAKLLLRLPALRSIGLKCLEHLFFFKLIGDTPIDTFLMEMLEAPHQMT
Assay: Evaluation of VDR transcription activity in human osteoblasts (HOS cells), luciferase reporter
Details: HOS cells transfected with human VDR, human RXRα and DR3 luciferase reporter, 21 hours

[1] = Activity (EC50, VDR transcription activity)
[2] = read-out: Activity (EC50, VDR transcription activity)

Row | Structure (SMILES) | EC50 [1] [nM] | EC50 [2] [nM]
1 | C=C1/C(=C\C=C2/CCC[C@]3(C)[C@@H]([C@H](C)CN4CCC(O)(C(F)(F)F)C4)CC[C@@H]23)C[C@@H](O)C[C@@H]1O (single isomer, unassigned) [Compound B044a] | < 1 | 
2 | C=C1/C(=C\C=C2/CCC[C@]3(C)[C@@H]([C@H](C)CN4CCC(O)(C(F)(F)F)C4)CC[C@@H]23)C[C@@H](O)C[C@@H]1O (single isomer, unassigned) [Compound B044b] |  | < 1
3 | C=C1[C@H](O)CC(=C/C=C2\CCC[C@]3(C)[C@@H]([C@H](C)CN4CCC(O)(C(F)(F)F)C4)CC[C@@H]23)C[C@H]1O (single isomer, unassigned) [Compound B046a] | < 1 | 
4 | C=C1[C@H](O)CC(=C/C=C2\CCC[C@]3(C)[C@@H]([C@H](C)CN4CCC(O)(C(F)(F)F)C4)CC[C@@H]23)C[C@H]1O (single isomer, unassigned) [Compound B046b] |  | < 1
5 | C=C1/C(=C\C=C2/CCC[C@]3(C)[C@@H]([C@H](C)CN4CCCC(O)(C(F)(F)F)C4)CC[C@@H]23)C[C@@H](O)C[C@@H]1O (single isomer, unassigned) [Compound C030b] | 1 to 10 | 
6 | C=C1/C(=C\C=C2/CCC[C@]3(C)[C@@H]([C@H](C)CN4CCCC(O)(C(F)(F)F)C4)CC[C@@H]23)C[C@@H](O)[C@H](C)[C@@H]1O (single isomer, unassigned) [Compound C031a] | < 1 | 
7 | C=C1/C(=C\C=C2/CCC[C@]3(C)[C@@H]([C@H](C)CN4CCCC(O)(C(F)(F)F)C4)CC[C@@H]23)C[C@@H](O)[C@H](C)[C@@H]1O (single isomer, unassigned) [Compound C031b] | 1 to 10 | 
8 | C=C1/C(=C\C=C2/CCC[C@]3(C)[C@@H]([C@@H](C)CN4CCCC(O)(C(F)(F)F)C4)CC[C@@H]23)C[C@@H](O)C[C@@H]1O (single isomer, unassigned) [Compound C033a] | < 1 | 
9 | C=C1/C(=C\C=C2/CCC[C@]3(C)[C@@H]([C@@H](C)CN4CCCC(O)(C(F)(F)F)C4)CC[C@@H]23)C[C@@H](O)C[C@@H]1O (single isomer, unassigned) [Compound C033b] | 1 to 10 | 
10 | C=C1/C(=C\C=C2/CCC[C@]3(C)[C@@H]([C@H](C)CN4CCCC(O)(C(F)F)C4)CC[C@@H]23)C[C@@H](O)C[C@@H]1O (single isomer, unassigned) [Compound C034a] | < 1 | 
11 | C=C1/C(=C\C=C2/CCC[C@]3(C)[C@@H]([C@H](C)CN4CCCC(O)(C(F)F)C4)CC[C@@H]23)C[C@@H](O)C[C@@H]1O (single isomer, unassigned) [Compound C034b] | 10 to 100 | 
12 | C[C@H](CN1CCCC(O)(C(F)F)C1)[C@H]1CC[C@H]2/C(=C/C=C3C[C@@H](O)C[C@H](O)C3)CCC[C@]12C (single isomer, unassigned) [Compound C035b] | 10 to 100 | 
13 | C=C1/C(=C\C=C2/CCC[C@]3(C)[C@@H]([C@H](C)CN4CCCC(C)(O)C4)CC[C@@H]23)C[C@@H](O)C[C@@H]1O (single isomer, unassigned) [Compound C037a] | < 1 | 
14 | C=C1/C(=C\C=C2/CCC[C@]3(C)[C@@H]([C@H](C)CN4CCCC(C)(O)C4)CC[C@@H]23)C[C@@H](O)C[C@@H]1O (single isomer, unassigned) [Compound C037b] | 10 to 100 | 
15 | C=C1/C(=C\C=C2/CCC[C@]3(C)[C@@H]([C@H](C)CN4CCCC(O)(CC)C4)CC[C@@H]23)C[C@@H](O)C[C@@H]1O (single isomer, unassigned) [Compound C042a] | < 1 | 
16 | C=C1/C(=C\C=C2/CCC[C@]3(C)[C@@H]([C@H](C)CN4CCCC(C)(OC)C4)CC[C@@H]23)C[C@@H](O)C[C@@H]1O (single isomer, unassigned) [Compound C043a] | 1 to 10 | 

Row | Structure (SMILES) | EC50 [1] [nM] | EC50 [2] [nM]
17 | C=C1/C(=C\C=C2/CCC[C@]3(C)[C@@H]([C@H](C)CN4CCCC(C)(OC)C4)CC[C@@H]23)C[C@@H](O)C[C@@H]1O (single isomer, unassigned) [Compound C043b] | 100 to 1000 | 
18 | CCC1(O)CCCN(C[C@@H](C)[C@H]2CC[C@H]3/C(=C/C=C4C[C@@H](O)C[C@H](O)C4)CCC[C@]23C)C1 (single isomer, unassigned) [Compound C044a] | 10 to 100 | 
19 | CCC1(O)CCCN(C[C@@H](C)[C@H]2CC[C@H]3/C(=C/C=C4C[C@@H](O)C[C@H](O)C4)CCC[C@]23C)C1 (single isomer, unassigned) [Compound C044b] | 100 to 1000 | 
20 | C=C1[C@H](O)CC(=C/C=C2\CCC[C@]3(C)[C@@H]([C@H](C)CN4CCCC(O)(CC)C4)CC[C@@H]23)C[C@H]1O (single isomer, unassigned) [Compound C046a] | < 1 | 
21 | C=C1[C@H](O)CC(=C/C=C2\CCC[C@]3(C)[C@@H]([C@H](C)CN4CCCC(O)(CC)C4)CC[C@@H]23)C[C@H]1O (single isomer, unassigned) [Compound C046b] | 1 to 10 | 
22 | C=C1[C@H](O)CC(=C/C=C2\CCC[C@]3(C)[C@@H]([C@H](C)CN4CCCC(C)(OC)C4)CC[C@@H]23)C[C@H]1O (single isomer, unassigned) [Compound C047a] | 1 to 10 | 
23 | C=C1[C@H](O)CC(=C/C=C2\CCC[C@]3(C)[C@@H]([C@H](C)CN4CCCC(C)(OC)C4)CC[C@@H]23)C[C@H]1O (single isomer, unassigned) [Compound C047b] | 10 to 100 | 
24 | C=C1/C(=C\C=C2/CCC[C@]3(C)[C@@H]([C@H](C)CN4CCOC(C(F)(F)F)C4)CC[C@@H]23)C[C@@H](O)[C@H](C)[C@@H]1O (single isomer, unassigned) [Compound D009a] | 1 to 10 | 
25 | C=C1/C(=C\C=C2/CCC[C@]3(C)[C@@H]([C@H](C)CN4CCOC(C(F)(F)F)C4)CC[C@@H]23)C[C@@H](O)[C@H](C)[C@@H]1O (single isomer, unassigned) [Compound D009b] | 10 to 100 | 
26 | C=C1/C(=C\C=C2/CCC[C@]3(C)[C@@H](C(C)CN4CC(F)C4)CC[C@@H]23)C[C@@H](O)C[C@@H]1O (stereo in doubt) [Compound A001, (1R,3S,Z)-5-(2-((1R,3aS,7aR,E)-1-((R)-1-(3-fluoroazetidin-1-yl)propan-2-yl)-7a-methyloctahydro-4H-inden-4-ylidene)ethylidene)-4-methylenecyclohexane-1,3-diol] | 100 to 1000 | 
27 | C=C1C(O)CC(=C/C=C2\CCC[C@]3(C)[C@@H]([C@H](C)CN4CC[C@@H](OC(F)(F)F)C4)CC[C@@H]23)C[C@H]1O (stereo in doubt) [Compound B068, (1R,3S)-5-(2-((1R,3aS,7aR,E)-7a-methyl-1-((S)-1-((R)-3-(trifluoromethoxy)pyrrolidin-1-yl)propan-2-yl)octahydro-4H-inden-4-ylidene)ethylidene)-2-methylenecyclohexane-1,3-diol] | 1 to 10 | 
28 | C[C@H](CN1CC[C@H](OC(F)(F)F)C1)[C@H]1CC[C@H]2/C(=C/C=C3CC(O)C[C@H](O)C3)CCC[C@]12C (stereo in doubt) [Compound B069, (1R,3S)-5-(2-((1R,3aS,7aR,E)-7a-methyl-1-((S)-1-((S)-3-(trifluoromethoxy)pyrrolidin-1-yl)propan-2-yl)octahydro-4H-inden-4-ylidene)ethylidene)cyclohexane-1,3-diol] | 10 to 100 | 
29 | C[C@H](CN1CC[C@](C)(O)C1)[C@H]1CC[C@H]2/C(=C/C=C3CC(O)C[C@H](O)C3)CCC[C@]12C (stereo in doubt) [Compound B072, (1R,3 S)-5-(2-((1R,3aS,7aR,E)-1-((S)-1-((S)-3-hydroxy-3-methylpyrrolidin-1-yl)propan-2-yl)-7a-methyloctahydro-4H-inden-4-ylidene)ethylidene)cyclohexane-1,3-diol] | 10 to 100 | 
30 | C[C@H](CN1CC[C@@](C)(O)C1)[C@H]1CC[C@H]2/C(=C/C=C3CC(O)C[C@H](O)C3)CCC[C@]12C (stereo in doubt) [Compound B075, (1R,3S)-5-(2-((1R,3aS,7aR,E)-1-((S)-1-((R)-3-hydroxy-3-methylpyrrolidin-1-yl)propan-2-yl)-7a-methyloctahydro-4H-inden-4-ylidene)ethylidene)cyclohexane-1,3-diol] | 100 to 1000 | 
31 | C=C1C(O)CC(=C/C=C2\CCC[C@]3(C)[C@@H]([C@H](C)CN4CC[C@@](C)(O)C4)CC[C@@H]23)C[C@H]1O (stereo in doubt) [Compound B076, (1R,3S)-5-(2-((1R,3aS,7aR,E)-1-((S)-1-((R)-3-hydroxy-3-methylpyrrolidin-1-yl)propan-2-yl)-7a-methyloctahydro-4H-inden-4-ylidene)ethylidene)-2-methylenecyclohexane-1,3-diol] | 10 to 100 | 
